{
  "source": "paper PMC5542402",
  "about": "(Combinatorial chemistry & high throughput screening, 2016)",
  "molecular_target": "PhoP (Mycobacterium tuberculosis, UniProt P71814)",
  "assay_type": "binding",
  "data": [
    {"smiles": "[N-]=[N+]=Nc1ccc(C(=O)CSC[C@H](NC(=O)CC[C@H](N)C(=O)O)C(=O)NCC(=O)O)cc1", "note": "[NCGC00093547]", "values": [
      {"measurement": "Kd", "result": 12.6, "unit": "µM"}
    ]}
  ]
}
